According to patent publication US20230279020A9, “CARM1 INHIBITORS AND USES THEREOF” (Epizyme, Inc., priority 2013, published 2023):

Molecular target: Human CARM1 (PRMT4) (Homo sapiens (Human), UniProt Q86X55)
Assay: CARM1 enzyme assay on peptide substrate (3H-SAM Flashplate)
Conditions: Biochemical potencies, classification codes; read-out: Biochem IC50

Sequence of Human CARM1 (PRMT4) (Q86X55 other isoform, or with tags, fused parts or gaps isoform Q86X55-1): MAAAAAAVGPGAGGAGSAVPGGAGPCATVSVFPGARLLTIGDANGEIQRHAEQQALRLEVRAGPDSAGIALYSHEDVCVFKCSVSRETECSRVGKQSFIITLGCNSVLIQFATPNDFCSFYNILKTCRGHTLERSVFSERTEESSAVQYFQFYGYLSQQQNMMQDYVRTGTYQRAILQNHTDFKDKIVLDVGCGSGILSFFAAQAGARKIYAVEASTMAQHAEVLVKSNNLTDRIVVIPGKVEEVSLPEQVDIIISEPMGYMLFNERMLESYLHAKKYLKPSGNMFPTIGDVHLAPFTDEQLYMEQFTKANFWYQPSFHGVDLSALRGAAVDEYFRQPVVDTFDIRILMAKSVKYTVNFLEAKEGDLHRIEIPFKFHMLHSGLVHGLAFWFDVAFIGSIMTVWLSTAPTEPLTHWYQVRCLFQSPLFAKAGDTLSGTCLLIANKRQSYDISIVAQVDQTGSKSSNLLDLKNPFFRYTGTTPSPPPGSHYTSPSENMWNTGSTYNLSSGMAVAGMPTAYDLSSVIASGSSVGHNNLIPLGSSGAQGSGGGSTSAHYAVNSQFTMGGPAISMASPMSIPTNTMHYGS

IC50	Compound
< 100 nM	CNC[C@@H](O)COc1ccc(Cl)c(-c2nc(-c3c(C)noc3C)c(C)c(N3Cc4[nH]nc(C)c4C3)n2)c1 [Example 224-3]
< 100 nM	CNC[C@@H](O)COc1ccc(Cl)c(-c2nc(-c3c(C)noc3C)c(Cl)c(N3Cc4nccnc4C3)n2)c1 [Example 225-3]
< 100 nM	CNC[C@@H](O)COc1ccc(F)c(-c2nc(-c3c(C)noc3C)c(C)c(N3CC4(CCOCC4)C3)n2)c1 [Example 227-3]
< 100 nM	CNC[C@@H](O)COc1ccc(Cl)c(-c2nc(NC[C@@H]3CCOC3)c(C)c(-c3c(C)noc3C)n2)c1 [Example 228-3]
< 100 nM	CNC[C@@H](O)COc1ccc(Cl)c(-c2nc(-c3c(C)noc3C)c(Cl)c(N3CC4(CCOCC4)C3)n2)c1 [Example 229-3]
< 100 nM	CNC[C@@H](O)COc1ccc(Cl)c(-c2nc(NC3CC(C)C3)c(C)c(-c3c(C)noc3C)n2)c1 (stereo partly drawn) [Example 230-3]
< 100 nM	CNCC(O)COc1cccc(-c2nc(N[C@H]3C[C@H](C(C)(C)O)C3)c(C)c(-c3c(C)noc3C)n2)c1 (stereo partly drawn) [Example 231-1a]
< 100 nM	CNC[C@@H](O)COc1ccc(Cl)c(-c2nc(-c3c(C)noc3C)c(C)c(N3Cc4cn[nH]c4C3)n2)c1 [Example 231-3]
< 100 nM	CNCC(O)COc1cccc(-c2nc(N[C@H]3C[C@@H](C(C)(C)O)C3)c(C)c(-c3c(C)noc3C)n2)c1 (stereo partly drawn) [Example 232-1a]
< 100 nM	CNC[C@@H](O)COc1ccc(Cl)c(-c2nc(-c3c(C)noc3C)c(C)c(N3Cc4cc(OC)cnc4C3)n2)c1 [Example 232-3]
< 100 nM	CNC[C@@H](O)COc1ccc(Cl)c(-c2nc(NC[C@H]3CCOC3)c(C)c(-c3c(C)noc3C)n2)c1 [Example 233-3]
< 100 nM	CNCC(O)COc1cccc(-c2nc(N[C@H]3CC[C@H](OC)C3)c(C)c(-c3c(C)noc3C)n2)c1 (stereo partly drawn) [Example 234-1a]
< 100 nM	CNC[C@@H](O)COc1ccc(Cl)c(-c2nc(-c3c(C)noc3C)c(C)c(N3CCC4(CC4)C3)n2)c1 [Example 234-3]
< 100 nM	CNC[C@@H](O)COc1ccc(Cl)c(-c2nc(-c3c(C)noc3C)c(C)c(N3CC4CC4C3)n2)c1 (stereo partly drawn) [Example 235-3]
< 100 nM	CNC[C@@H](O)COc1ccc(Cl)c(-c2nc(-c3c(C)noc3C)c(C)c(N3Cc4c(C)nn(C)c4C3)n2)c1 [Example 236-3]
< 100 nM	CCOC(=O)N1CC(Nc2nc(-c3cccc(OCC(O)CNC)c3)nc(-c3c(C)noc3C)c2C)C1 (stereo not drawn) [Example 238-1a]
< 100 nM	CNC[C@@H](O)COc1ccc(Cl)c(-c2nc(-c3c(C)noc3C)c(C)c(N3CCC3)n2)c1 [Example 238-3]
< 100 nM	CNCC(O)COc1cccc(-c2nc(NC3CCOC(C)C3)c(C)c(-c3c(C)noc3C)n2)c1 (stereo not drawn) [Example 239-1a]
< 100 nM	CNC[C@@H](O)COc1ccc(Cl)c(-c2nc(-c3cnn(C)c3)c(C)c(-c3c(C)noc3C)n2)c1 [Example 239-3]

IC50	Compound
< 100 nM	CCO[C@@H]1CCC[C@H]1Nc1nc(-c2cc(OC[C@H](O)CNC)ccc2Cl)nc(-c2c(C)noc2C)c1C [Example 240-3]
< 100 nM	CNCC(O)COc1cccc(-c2nc(NC3CCCC3)c(C)c(-c3c(C)noc3C)n2)c1 (stereo not drawn) [Example 241-1a]
< 100 nM	CCO[C@@H]1CCC[C@H]1N(CC)c1nc(-c2cc(OC[C@H](O)CNC)ccc2Cl)nc(-c2c(C)noc2C)c1C [Example 241-3]
< 100 nM	CCO[C@H]1CCC[C@H]1Nc1nc(-c2cc(OC[C@H](O)CNC)ccc2Cl)nc(-c2c(C)noc2C)c1C [Example 242-3]
< 100 nM	CNC[C@@H](O)COc1ccc(Cl)c(-c2nc(-c3c(C)noc3C)c(Cl)c(N3Cc4nc(C)sc4C3)n2)c1 [Example 243-3]
< 100 nM	CNCC(O)COc1cccc(-c2nc(NC3CCN(C(=O)N(C)C)CC3)c(C)c(-c3c(C)noc3C)n2)c1 (stereo not drawn) [Example 244-1a]
< 100 nM	CNC[C@@H](O)COc1ccc(Cl)c(-c2nc(-c3c(C)noc3C)c(C)c(N3Cc4cnc(C)nc4C3)n2)c1 [Example 245-3]
< 100 nM	CNC[C@@H](O)COc1ccc(Cl)c(-c2nc(-c3c(C)noc3C)c(C)c(N3CC4(CCC4)C3)n2)c1 [Example 246-3]
< 100 nM	CNC[C@@H](O)COc1ccc(Cl)c(-c2nc(-c3c(C)noc3C)c(C)c(N3Cc4cc(Br)cnc4C3)n2)c1 [Example 248-3]
< 100 nM	CNCC(O)COc1cccc(-c2nc(N[C@@H]3CCC[C@@H]3O)c(C)c(-c3c(C)noc3C)n2)c1 (stereo partly drawn) [Example 250-1a]
< 100 nM	CNC[C@@H](O)COc1ccc(Cl)c(-c2nc(-c3c(C)noc3C)c(C)c(N3Cc4nn(C)c(C)c4C3)n2)c1 [Example 252-3]
< 100 nM	CCO[C@@H]1CCC[C@@H]1Nc1nc(-c2cc(OC[C@H](O)CNC)ccc2Cl)nc(-c2c(C)noc2C)c1C [Example 253-3]
< 100 nM	CNCC(O)COc1cccc(-c2nc(N[C@H]3C[C@H](O)C3)c(C)c(-c3c(C)noc3C)n2)c1 (stereo partly drawn) [Example 254-1a]
< 100 nM	CCO[C@@H]1CCC[C@@H]1N(CC)c1nc(-c2cc(OC[C@H](O)CNC)ccc2Cl)nc(-c2c(C)noc2C)c1C [Example 254-3]
< 100 nM	CNCC(O)COc1cccc(-c2nc(N[C@H]3C[C@@](C)(O)C3)c(C)c(-c3c(C)noc3C)n2)c1 (stereo partly drawn) [Example 255-1a]
< 100 nM	CCO[C@H]1CCC[C@H]1N(CC)c1nc(-c2cc(OC[C@H](O)CNC)ccc2Cl)nc(-c2c(C)noc2C)c1C [Example 255-3]
< 100 nM	CNCC(O)COc1cccc(-c2nc(N[C@H]3C[C@@H](O)C3)c(C)c(-c3c(C)noc3C)n2)c1 (stereo partly drawn) [Example 256-1a]
< 100 nM	CNC[C@@H](O)COc1ccc(Cl)c(-c2nc(N[C@@H]3CCO[C@@H](C)C3)c(C)c(-c3c(C)noc3C)n2)c1 [Example 257-3]

Continued, molecule first:

Compound	IC50
CNCC(O)COc1cccc(-c2nc(N[C@@H]3CCNC[C@@H]3F)c(C)c(-c3c(C)noc3C)n2)c1 (stereo partly drawn) [Example 224-1a]	< 100 nM
CNCC(O)COc1cccc(-c2nc(N[C@@H]3CCN(C(=O)OC)C[C@@H]3F)c(C)c(-c3c(C)noc3C)n2)c1 (stereo partly drawn) [Example 225-1a]	< 100 nM
CCOC(=O)N1CC[C@@H](Nc2nc(-c3cccc(OCC(O)CNC)c3)nc(-c3c(C)noc3C)c2C)[C@@H](F)C1 (stereo partly drawn) [Example 226-1a]	< 100 nM
CNC[C@@H](O)COc1ccc(F)c(-c2nc(-c3c(C)noc3C)c(C)c(N3Cc4nccnc4C3)n2)c1 [Example 226-3]	< 100 nM
CNCC(O)COc1cccc(-c2nc(N[C@@H]3CCN(C(=O)OC(C)(C)C)C[C@@H]3F)c(C)c(-c3c(C)noc3C)n2)c1 (stereo partly drawn) [Example 227-1a]	< 100 nM
CNCC(O)COc1cccc(-c2nc(N[C@@H]3CCN(C(=O)OC)C[C@H]3F)c(C)c(-c3c(C)noc3C)n2)c1 (stereo partly drawn) [Example 228-1a]	< 100 nM
CCOC(=O)N1CC[C@@H](Nc2nc(-c3cccc(OCC(O)CNC)c3)nc(-c3c(C)noc3C)c2C)[C@H](F)C1 (stereo partly drawn) [Example 229-1a]	< 100 nM
CCS(=O)(=O)N1CCOC[C@@H]1CNc1nc(-c2cccc(OCC(O)CNC)c2)nc(-c2c(C)noc2C)c1C (stereo partly drawn) [Example 230-1a]	< 100 nM
CNCC(O)COc1cccc(-c2nc(Nc3cc(C)on3)c(C)c(-c3c(C)noc3C)n2)c1 (stereo not drawn) [Example 233-1a]	< 100 nM
CNCC(O)COc1cccc(-c2nc(-c3c(C)noc3C)c(C)c(N3CCN(Cc4ccccc4)C(C(F)F)C3)n2)c1 (stereo not drawn) [Example 235-1a]	< 100 nM
CNCC(O)COc1cccc(-c2nc(NC3CCOCC3)c(C)c(-c3c(C)noc3C3CC3)n2)c1 (stereo not drawn) [Example 236-1a]	< 100 nM
CNCC(O)COc1cccc(-c2nc(NC3CN(CC(F)F)C3)c(C)c(-c3c(C)noc3C)n2)c1 (stereo not drawn) [Example 237-1a]	< 100 nM
CNCC(O)COc1cccc(-c2nc(NC3CCN(C4COC4)C3)c(C)c(-c3c(C)noc3C)n2)c1 (stereo not drawn) [Example 240-1a]	< 100 nM
CNCC(O)COc1cccc(-c2nc(NC3C[C@H]4CC[C@@H](C3)N4C(=O)OC)c(C)c(-c3c(C)noc3C)n2)c1 (stereo partly drawn) [Example 242-1a]	< 100 nM
CNCC(O)COc1cccc(-c2nc(NC3CCN(C(=O)C4CC4)C3)c(C)c(-c3c(C)noc3C)n2)c1 (stereo not drawn) [Example 243-1a]	< 100 nM
CNC[C@@H](O)COc1ccc(F)c(-c2nc(-c3c(C)noc3C)c(C)c(N3Cc4cc(OC)cnc4C3)n2)c1 [Example 244-3]	< 100 nM
CNCC(O)COc1cccc(-c2nc(NC3CCN(C(=O)C4CC4)CC3)c(C)c(-c3c(C)noc3C)n2)c1 (stereo not drawn) [Example 245-1a]	< 100 nM
CNCC(O)COc1cccc(-c2nc(NC3CCCN(C4COC4)C3)c(C)c(-c3c(C)noc3C)n2)c1 (stereo not drawn) [Example 246-1a]	< 100 nM
CNCC(O)COc1cccc(-c2nc(NC3CCCN(C(=O)C4CC4)C3)c(C)c(-c3c(C)noc3C)n2)c1 (stereo not drawn) [Example 247-1a]	< 100 nM
CNC[C@@H](O)COc1ccc(C(F)(F)F)c(-c2nc(-c3c(C)noc3C)c(C)c(N3Cc4cncnc4C3)n2)c1 [Example 247-3]	< 100 nM
CNCC(O)COc1cccc(-c2nc(NCC3CCN(C(=O)N(C)C)CC3)c(C)c(-c3c(C)noc3C)n2)c1 (stereo not drawn) [Example 248-1a]	< 100 nM
CNCC(O)COc1cccc(-c2nc(NCC3CCN(C(=O)C4CC4)CC3)c(C)c(-c3c(C)noc3C)n2)c1 (stereo not drawn) [Example 249-1a]	< 100 nM
CNC[C@@H](O)COc1ccc(Cl)c(-c2nc(-c3c(C)noc3C)cc(N3CC4(CCOCC4)C3)n2)c1 [Example 249-3]	< 100 nM
CNC[C@@H](O)COc1ccc(Cl)c(-c2nc(-c3c(C)noc3C)cc(N3Cc4cnn(C)c4C3)n2)c1 [Example 250-3]	< 100 nM
CNCC(O)COc1cccc(-c2nc(-c3c(C)noc3C)c(C)c(N3CCC4(CC3)CN(C(=O)OC)C4)n2)c1 (stereo not drawn) [Example 251-1a]	< 100 nM
CNC[C@@H](O)COc1ccc(Cl)c(-c2nc(-c3c(C)noc3C)cc(N3Cc4nccnc4C3)n2)c1 [Example 251-3]	< 100 nM
CNCC(O)COc1cccc(-c2nc(-c3c(C)noc3C)c(C)c(N3CCC4(CC3)CN(C(=O)N(C)C)C4)n2)c1 (stereo not drawn) [Example 252-1a]	< 100 nM
CCS(=O)(=O)N1CC2(CCN(c3nc(-c4cccc(OCC(O)CNC)c4)nc(-c4c(C)noc4C)c3C)CC2)C1 (stereo not drawn) [Example 253-1a]	< 100 nM
CNCC(O)COc1cccc(-c2nc(NC3CCOCC3)c(C)c(-c3c(CO)noc3C)n2)c1 (stereo not drawn) [Example 256-3]	< 100 nM
